Source: ChEMBL document CHEMBL1128293, “4,4-Disubstituted piperidines: a new class of NK1 antagonist” (J Med Chem, 1995)
pIC50: −log10 of the molar value.

Biological target: Substance-P receptor (Homo sapiens, UniProt P25103)
Experiment: Antagonistic activity against human Tachykinin receptor 1
Assay type: functional

Sequence of Substance-P receptor (P25103 whole entry): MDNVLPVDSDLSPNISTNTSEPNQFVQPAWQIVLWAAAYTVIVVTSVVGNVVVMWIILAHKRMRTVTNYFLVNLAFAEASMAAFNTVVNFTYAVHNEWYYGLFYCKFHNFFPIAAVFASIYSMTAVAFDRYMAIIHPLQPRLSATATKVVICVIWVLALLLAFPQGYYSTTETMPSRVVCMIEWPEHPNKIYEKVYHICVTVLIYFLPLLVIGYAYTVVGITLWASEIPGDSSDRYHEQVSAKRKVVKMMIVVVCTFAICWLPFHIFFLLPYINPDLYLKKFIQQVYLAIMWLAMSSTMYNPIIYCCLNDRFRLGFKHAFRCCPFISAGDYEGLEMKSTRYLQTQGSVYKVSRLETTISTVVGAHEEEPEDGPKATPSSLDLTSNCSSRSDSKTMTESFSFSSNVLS

pIC50	Structure (SMILES)
8.34	Clc1cc(Cl)cc(COCC2(c3ccccc3)CCNCC2)c1
8.05	Cc1cc(C)cc(COCC2(c3ccccc3)CCNCC2)c1
7.24	FC(F)(F)c1cccc(COCC2(c3ccccc3)CCNCC2)c1
